Experimental data from US12258327B2, “5-membered heteroaryl-containing aminopyridine compounds as EGFR inhibitors” (YUHAN CORPORATION, priority 2021, dated 2025).
Like-named read-outs stand apart in the source and are kept apart here.

What was measured:
EGFR del19/T790M/C797S = EGFR del19/T790M/C797S (Homo sapiens, UniProt P00533, C797S/DEL746-750/T790M); experiment: Biochemical EGFR kinase assay (Lance Ultra TR-FRET), triple mutant del19/T790M/C797S
In short: (§1)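 Step 1: compound in kinase buffer, 0.003–10 μM. Step 2: kinase reaction 1 h at room temperature. Step 4: TR-FRET read at 615/665 nm; IC50 calculated.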

EGFR L858R/T790M/C797S = EGFR L858R/T790M/C797S (Homo sapiens, UniProt P00533, C797S/L858R/T790M); experiment: Biochemical EGFR kinase assay (Lance Ultra TR-FRET), triple mutant L858R/T790M/C797S
In short: as §1

EGFR del19/C797S = EGFR del19/C797S (Homo sapiens, UniProt P00533, C797S/DEL746-750); experiment: Biochemical EGFR kinase assay (Lance Ultra TR-FRET), double mutant del19/C797S
In short: as §1

EGFR L858R/C797S = EGFR L858R/C797S (Homo sapiens, UniProt P00533, C797S/L858R); experiment: Biochemical EGFR kinase assay (Lance Ultra TR-FRET), double mutant L858R/C797S
In short: as §1

EGFR wildtype (WT) = EGFR wildtype (WT) (Homo sapiens, UniProt P00533); experiment: Biochemical EGFR kinase assay (Lance Ultra TR-FRET), wildtype
In short: as §1

[1] = Km ATP, read-out: IC50 del19/T790M/C797S, Km ATP
[2] = Km ATP, read-out: IC50 L858R/T790M/C797S, Km ATP
[3] = Km ATP, read-out: IC50 del19/C797S, Km ATP
[4] = Km ATP, read-out: IC50 L858R/C797S, Km ATP
[5] = Km ATP, read-out: IC50 WT, Km ATP
[6] = IC50 del19/T790M/C797S (nM) 100 μM ATP, 100 μM ATP
[7] = IC50 L858R/T790M/C797S (nM) 100 μM ATP, 100 μM ATP
[8] = IC50 del19/C797S (nM) 100 μM ATP, 100 μM ATP
[9] = IC50 L858R/C797S (nM) 100 μM ATP, 100 μM ATP
[10] = IC50 WT (nM) 100 μM ATP, 100 μM ATP
[11] = Km ATP, read-out: IC50 del19/T790M/C797S (nM) Km ATP
[12] = Km ATP, read-out: IC50 L858R/T790M/C797S (nM) Km ATP
[13] = Km ATP, read-out: IC50 del19/C797S (nM) Km ATP
[14] = Km ATP, read-out: IC50 L858R/C797S (nM) Km ATP
[15] = Km ATP, read-out: IC50 WT (nM) Km ATP

Sequence of EGFR wildtype (WT) (P00533 25-1210): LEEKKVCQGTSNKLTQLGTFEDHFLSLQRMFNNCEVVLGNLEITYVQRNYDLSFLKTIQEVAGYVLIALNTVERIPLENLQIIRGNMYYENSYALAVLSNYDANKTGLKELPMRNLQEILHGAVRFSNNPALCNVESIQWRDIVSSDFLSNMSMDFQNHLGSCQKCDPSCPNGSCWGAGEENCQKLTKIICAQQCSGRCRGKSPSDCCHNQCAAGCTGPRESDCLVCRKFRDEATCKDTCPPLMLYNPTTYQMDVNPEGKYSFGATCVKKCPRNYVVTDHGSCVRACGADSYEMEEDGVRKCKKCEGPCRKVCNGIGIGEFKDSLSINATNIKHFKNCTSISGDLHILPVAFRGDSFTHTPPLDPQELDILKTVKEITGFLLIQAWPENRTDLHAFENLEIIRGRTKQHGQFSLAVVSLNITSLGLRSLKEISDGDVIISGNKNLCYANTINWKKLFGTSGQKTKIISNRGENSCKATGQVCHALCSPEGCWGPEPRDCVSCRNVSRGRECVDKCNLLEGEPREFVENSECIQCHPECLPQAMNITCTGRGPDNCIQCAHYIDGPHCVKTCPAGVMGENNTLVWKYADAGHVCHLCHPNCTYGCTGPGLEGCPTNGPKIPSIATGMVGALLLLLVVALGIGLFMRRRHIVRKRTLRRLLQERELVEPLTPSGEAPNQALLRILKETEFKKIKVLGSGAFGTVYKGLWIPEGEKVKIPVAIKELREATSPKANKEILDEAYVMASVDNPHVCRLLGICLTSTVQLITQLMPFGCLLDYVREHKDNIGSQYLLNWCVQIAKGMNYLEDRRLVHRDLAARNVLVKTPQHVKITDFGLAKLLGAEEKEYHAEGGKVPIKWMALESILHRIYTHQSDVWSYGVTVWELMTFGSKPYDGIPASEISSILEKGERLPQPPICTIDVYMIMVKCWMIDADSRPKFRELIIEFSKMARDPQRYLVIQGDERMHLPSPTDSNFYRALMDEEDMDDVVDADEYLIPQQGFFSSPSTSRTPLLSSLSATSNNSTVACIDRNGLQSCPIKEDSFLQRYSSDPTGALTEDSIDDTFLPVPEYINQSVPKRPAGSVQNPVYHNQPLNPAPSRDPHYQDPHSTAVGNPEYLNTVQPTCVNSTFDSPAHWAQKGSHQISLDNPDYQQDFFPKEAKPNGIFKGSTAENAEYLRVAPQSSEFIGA
Sequence of EGFR del19/T790M/C797S (P00533 with tags, fused parts or gaps DEL746-750/T790M/C797S): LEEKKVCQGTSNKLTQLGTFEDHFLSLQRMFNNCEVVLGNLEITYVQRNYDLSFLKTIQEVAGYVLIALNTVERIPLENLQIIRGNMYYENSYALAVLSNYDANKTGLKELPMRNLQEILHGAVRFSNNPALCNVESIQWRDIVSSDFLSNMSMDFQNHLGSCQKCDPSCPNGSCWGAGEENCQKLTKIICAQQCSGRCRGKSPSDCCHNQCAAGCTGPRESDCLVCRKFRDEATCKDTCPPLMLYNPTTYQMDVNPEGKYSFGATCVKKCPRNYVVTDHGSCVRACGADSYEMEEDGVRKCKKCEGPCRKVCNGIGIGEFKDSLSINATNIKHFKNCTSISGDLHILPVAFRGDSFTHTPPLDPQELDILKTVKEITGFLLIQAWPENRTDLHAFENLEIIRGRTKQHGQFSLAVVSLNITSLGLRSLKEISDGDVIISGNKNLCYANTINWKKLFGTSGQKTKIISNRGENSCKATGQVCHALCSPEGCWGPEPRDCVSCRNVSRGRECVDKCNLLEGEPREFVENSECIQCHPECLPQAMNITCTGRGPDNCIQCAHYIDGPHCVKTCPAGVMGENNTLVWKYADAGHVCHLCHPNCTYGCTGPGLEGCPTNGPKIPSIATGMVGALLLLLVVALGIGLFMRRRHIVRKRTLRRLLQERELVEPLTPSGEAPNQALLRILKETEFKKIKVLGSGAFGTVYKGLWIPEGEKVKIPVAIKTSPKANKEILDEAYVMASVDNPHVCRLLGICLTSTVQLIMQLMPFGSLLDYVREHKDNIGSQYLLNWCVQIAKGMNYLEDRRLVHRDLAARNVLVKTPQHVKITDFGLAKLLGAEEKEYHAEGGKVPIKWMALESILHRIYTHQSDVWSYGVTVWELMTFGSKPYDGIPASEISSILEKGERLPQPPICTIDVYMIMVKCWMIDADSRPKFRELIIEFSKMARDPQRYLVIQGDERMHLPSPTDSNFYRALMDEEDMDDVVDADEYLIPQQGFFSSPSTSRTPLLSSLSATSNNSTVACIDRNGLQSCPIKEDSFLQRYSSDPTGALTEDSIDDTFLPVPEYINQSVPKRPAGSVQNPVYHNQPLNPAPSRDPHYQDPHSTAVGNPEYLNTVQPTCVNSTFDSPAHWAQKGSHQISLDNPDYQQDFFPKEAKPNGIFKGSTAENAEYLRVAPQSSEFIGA
Sequence of EGFR L858R/C797S (P00533 25-1210 C797S/L858R): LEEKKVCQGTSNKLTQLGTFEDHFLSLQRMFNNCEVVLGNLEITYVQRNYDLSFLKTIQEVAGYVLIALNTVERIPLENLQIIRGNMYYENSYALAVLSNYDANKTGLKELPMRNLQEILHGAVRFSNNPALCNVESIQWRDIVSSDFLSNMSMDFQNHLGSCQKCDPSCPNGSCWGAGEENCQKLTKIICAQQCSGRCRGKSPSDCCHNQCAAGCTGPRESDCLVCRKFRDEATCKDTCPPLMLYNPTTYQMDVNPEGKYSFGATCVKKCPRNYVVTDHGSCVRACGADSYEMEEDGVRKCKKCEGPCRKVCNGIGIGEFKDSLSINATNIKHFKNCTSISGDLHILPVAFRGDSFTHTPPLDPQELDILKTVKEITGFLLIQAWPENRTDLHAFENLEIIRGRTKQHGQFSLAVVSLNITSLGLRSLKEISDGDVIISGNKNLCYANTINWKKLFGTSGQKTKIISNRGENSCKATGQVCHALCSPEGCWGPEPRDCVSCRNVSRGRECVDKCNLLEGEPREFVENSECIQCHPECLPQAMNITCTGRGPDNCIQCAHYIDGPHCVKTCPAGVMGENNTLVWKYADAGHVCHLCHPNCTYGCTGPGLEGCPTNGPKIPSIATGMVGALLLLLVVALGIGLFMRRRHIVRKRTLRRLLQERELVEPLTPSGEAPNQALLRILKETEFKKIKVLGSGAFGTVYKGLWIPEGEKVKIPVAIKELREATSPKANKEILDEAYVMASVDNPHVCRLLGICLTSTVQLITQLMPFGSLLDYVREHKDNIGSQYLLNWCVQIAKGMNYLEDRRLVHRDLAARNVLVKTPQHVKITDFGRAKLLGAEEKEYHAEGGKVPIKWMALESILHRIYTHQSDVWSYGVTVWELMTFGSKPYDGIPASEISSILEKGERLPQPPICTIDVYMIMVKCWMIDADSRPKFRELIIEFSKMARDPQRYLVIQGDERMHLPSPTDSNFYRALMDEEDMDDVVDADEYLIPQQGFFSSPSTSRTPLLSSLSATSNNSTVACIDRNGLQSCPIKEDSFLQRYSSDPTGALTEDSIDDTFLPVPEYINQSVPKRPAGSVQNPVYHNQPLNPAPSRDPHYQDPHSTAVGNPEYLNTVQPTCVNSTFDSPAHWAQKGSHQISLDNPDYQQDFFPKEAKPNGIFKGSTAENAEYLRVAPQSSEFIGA
Sequence of EGFR del19/C797S (P00533 with tags, fused parts or gaps DEL746-750/C797S): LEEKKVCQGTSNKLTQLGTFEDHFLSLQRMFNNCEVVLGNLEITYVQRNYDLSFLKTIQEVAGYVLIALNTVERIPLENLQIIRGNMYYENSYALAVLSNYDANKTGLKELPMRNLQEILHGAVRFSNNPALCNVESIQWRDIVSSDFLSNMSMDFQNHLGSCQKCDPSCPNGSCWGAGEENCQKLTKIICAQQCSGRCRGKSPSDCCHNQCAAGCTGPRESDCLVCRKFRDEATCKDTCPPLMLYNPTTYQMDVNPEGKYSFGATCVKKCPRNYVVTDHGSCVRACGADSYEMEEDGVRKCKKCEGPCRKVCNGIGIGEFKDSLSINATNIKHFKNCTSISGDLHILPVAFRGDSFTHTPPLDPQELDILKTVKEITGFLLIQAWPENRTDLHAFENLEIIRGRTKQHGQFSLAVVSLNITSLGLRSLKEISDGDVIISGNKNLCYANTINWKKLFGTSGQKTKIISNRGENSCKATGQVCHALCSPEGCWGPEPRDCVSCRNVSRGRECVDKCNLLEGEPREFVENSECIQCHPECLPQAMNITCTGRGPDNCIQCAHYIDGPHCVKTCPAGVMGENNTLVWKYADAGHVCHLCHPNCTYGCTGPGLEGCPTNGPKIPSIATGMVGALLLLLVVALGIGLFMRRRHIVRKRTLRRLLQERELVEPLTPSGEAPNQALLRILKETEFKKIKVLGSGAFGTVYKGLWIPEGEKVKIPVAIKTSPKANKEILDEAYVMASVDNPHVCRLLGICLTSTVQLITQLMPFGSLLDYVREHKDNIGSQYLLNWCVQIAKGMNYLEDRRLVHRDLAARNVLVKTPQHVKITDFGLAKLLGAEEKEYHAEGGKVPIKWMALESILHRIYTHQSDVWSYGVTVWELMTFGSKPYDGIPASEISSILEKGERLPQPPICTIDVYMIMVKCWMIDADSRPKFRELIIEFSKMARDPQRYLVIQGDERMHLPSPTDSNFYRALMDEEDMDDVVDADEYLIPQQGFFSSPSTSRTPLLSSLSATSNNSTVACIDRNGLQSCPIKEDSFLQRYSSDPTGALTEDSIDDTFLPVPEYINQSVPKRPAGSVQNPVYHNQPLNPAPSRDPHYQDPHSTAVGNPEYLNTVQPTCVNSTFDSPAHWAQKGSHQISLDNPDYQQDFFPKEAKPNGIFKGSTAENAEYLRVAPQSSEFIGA

Row | SMILES | IC50 (EGFR del19/T790M/C797S; [1]) [nM] | IC50 (EGFR L858R/T790M/C797S; [2]) [nM] | IC50 (EGFR del19/C797S; [3]) [nM] | IC50 (EGFR L858R/C797S; [4]) [nM] | IC50 (EGFR wildtype (WT); [5]) [nM] | IC50 (EGFR del19/T790M/C797S; [6]) [nM] | IC50 (EGFR L858R/T790M/C797S; [7]) [nM] | IC50 (EGFR del19/C797S; [8]) [nM] | IC50 (EGFR L858R/C797S; [9]) [nM] | IC50 (EGFR wildtype (WT); [10]) [nM] | IC50 (EGFR del19/T790M/C797S; [11]) [nM] | IC50 (EGFR L858R/T790M/C797S; [12]) [nM] | IC50 (EGFR del19/C797S; [13]) [nM] | IC50 (EGFR L858R/C797S; [14]) [nM] | IC50 (EGFR wildtype (WT); [15]) [nM]
1 | C[C@]1(O)CC[C@@H](Nc2cc(Nc3nc(-c4cnn(S(=O)(=O)C5CC5)c4)ncc3F)ncc2-c2ccn(CC(F)F)n2)CC1 [Example 345, (1s,4s)-4-((2-((2-(1-(Cyclopropylsulfonyl)-1H-pyrazol-4-yl)-5-fluoropyrimidin-4-yl)amino)-5-(1-(2,2-difluoroethyl)-1H-pyrazol-3-yl)pyridin-4-yl)amino)-1-methylcyclohexan-1-ol] | 0.4 | 0.9 | 4.6 | 0.3 | 22.2 | – | – | – | – | – | – | – | – | – | –
2 | C[C@]1(O)CC[C@@H](Nc2cc(Nc3ccnc(-c4cnn(CC5CC5)c4)n3)ncc2-c2ccn(C(F)F)n2)CC1 [Example 141, (1s,4s)-4-((2-((2-(1-(Cyclopropylmethyl)-1H-pyrazol-4-yl)pyrimidin-4-yl)amino)-5-(1-(difluoromethyl)-1H-pyrazol-3-yl)pyridin-4-yl)amino)-1-methylcyclohexan-1-ol] | – | – | – | – | – | 15.8 | 3.2 | 111 | 198 | > 10000 | – | – | – | – | –
3 | O=S(=O)(C1CC1)n1cc(-c2nccc(Nc3cc(N[C@H]4CC[C@](O)(C(F)F)CC4)c(-c4ccn(C(F)F)n4)cn3)n2)cn1 [Example 200, (1s,4s)-4-((2-((2-(1-(Cyclopropylsulfonyl)-1H-pyrazol-4-yl)pyrimidin-4-yl)amino)-5-(1-(difluoromethyl)-1H-pyrazol-3-yl)pyridin-4-yl)amino)-1-(difluoromethyl)cyclohexan-1-ol] | – | – | – | – | – | 1 | 2.1 | – | 293 | > 10000 | 0.6 | 0.4 | 13.5 | 15.4 | 2850
4 | C[C@]1(O)CC[C@@H](Nc2cc(Nc3ccnc(-c4cnn(S(=O)(=O)C5CC5)c4)n3)ncc2-c2cn3c(n2)CCC3)CC1 [Example 274, (1s,4s)-4-((2-((2-(1-(Cyclopropylsulfonyl)-1H-pyrazol-4-yl)pyrimidin-4-yl)amino)-5-(6,7-dihydro-5H-pyrrolo[1,2-a]imidazol-2-yl)pyridin-4-yl)amino)-1-methylcyclohexan-1-ol] | – | – | – | – | – | 0.5 | 0.3 | 0.5 | 3.8 | 4880 | 0.3 | 0.2 | 0.6 | 0.3 | 3.4
5 | O=S(=O)(C1CC1)n1cc(-c2nccc(Nc3cc(NC4CCC(O)(C5CC5)CC4)c(-c4ccn(C(F)F)n4)cn3)n2)cn1 (stereo not shown) [Example 110, 1-Cyclopropyl-4-((2-((2-(1-(cyclopropylsulfonyl)-1H-pyrazol-4-yl)pyrimidin-4-yl)amino)-5-(1-(difluoromethyl)-1H-pyrazol-3-yl)pyridin-4-yl)amino)cyclohexan-1-ol] | – | – | – | – | – | – | – | – | – | – | 2.5 | 1.9 | 24.7 | 23.7 | 34.5
6 | CC(C)(O)[C@H]1CC[C@@H](Nc2cc(Nc3ccnc(-c4cnn(CC(F)F)c4)n3)ncc2-c2ccn(C(F)F)n2)CC1 [Example 148, 2-((1s,4s)-4-((2-((2-(1-(2,2-Difluoroethyl)-1H-pyrazol-4-yl)pyrimidin-4-yl)amino)-5-(1-(difluoromethyl)-1H-pyrazol-3-yl)pyridin-4-yl)amino)cyclohexyl)propan-2-ol] | – | – | – | – | – | – | – | – | – | – | 1.4 | 1.7 | 75.5 | 27 | 128
7 | O=S(=O)(C1CC1)n1cc(-c2nccc(Nc3cc(N[C@H]4CC[C@@H](F)CC4)c(-c4ccn(C(F)F)n4)cn3)n2)cn1 [Example 151, N^2-(2-(1-(Cyclopropylsulfonyl)-1H-pyrazol-4-yl)pyrimidin-4-yl)-5-(1-(difluoromethyl)-1H-pyrazol-3-yl)-N^4-((1s,4s)-4-fluorocyclohexyl)pyridine-2,4-diamine] | – | – | – | – | – | – | – | – | – | – | 1.6 | 0.9 | 43.5 | 4.7 | 72
8 | Cn1ccc(-c2cnc(Nc3ccnc(-c4cnn(S(=O)(=O)C5CC5)c4)n3)cc2NC2CCCC(NCCF)C2)n1 (stereo not shown) [Example 225, N^2-(2-(1-(Cyclopropylsulfonyl)-1H-pyrazol-4-yl)pyrimidin-4-yl)-N^4-(3-((2-fluoroethyl)amino)cyclohexyl)-5-(1-methyl-1H-pyrazol-3-yl)pyridine-2,4-diamine] | – | – | – | – | – | 0.2 | 0.6 | 6.7 | 15.3 | > 10000 | 0.3 | 0.2 | 2.9 | 5 | 27.4
9 | Cn1nc(-c2cnc(Nc3ccnc(-c4cnn(CC(F)(F)F)c4)n3)cc2N[C@H]2CC[C@@](C)(O)CC2)cc1C(F)(F)F [Example 329, (1s,4s)-1-Methyl-4-((5-(1-methyl-5-(trifluoromethyl)-1H-pyrazol-3-yl)-2-((2-(1-(2,2,2-trifluoroethyl)-1H-pyrazol-4-yl)pyrimidin-4-yl)amino)pyridin-4-yl)amino)cyclohexan-1-ol] | – | – | – | – | – | 6.5 | 4.1 | 37.1 | 1140 | > 10000 | 2.5 | 1.2 | 24.6 | 75 | 288
10 | Cc1ccn(-c2cnc(Nc3ccnc(-c4cnn(S(=O)(=O)C5CC5)c4)n3)cc2N[C@H]2CC[C@@](C)(O)CC2)n1 [Example 168, (1s,4s)-4-((2-((2-(1-(Cyclopropylsulfonyl)-1H-pyrazol-4-yl)pyrimidin-4-yl)amino)-5-(3-methyl-1H-pyrazol-1-yl)pyridin-4-yl)amino)-1-methylcyclohexan-1-ol] | – | – | – | – | – | – | – | – | – | – | 0.2 | 0.1 | 6.5 | 3 | 26.9
11 | COCn1ccc(-c2cnc(Nc3ccnc(-c4cnn(S(=O)(=O)C5CC5)c4)c3)nc2N[C@H]2CC[C@@](C)(O)CC2)n1 [Example 358, (1s,4s)-4-((2-((2-(1-(Cyclopropylsulfonyl)-1H-pyrazol-4-yl)pyridin-4-yl)amino)-5-(1-(methoxymethyl)-1H-pyrazol-3-yl)pyrimidin-4-yl)amino)-1-methylcyclohexan-1-ol] | 0.2 | 0.3 | 2.3 | 3.7 | 39.6 | – | – | – | – | – | – | – | – | – | –
12 | O=S(=O)(C1CC1)n1cc(-c2nccc(Nc3cc(NC4CCC(CCO)CC4)c(-c4ccn(C(F)F)n4)cn3)n2)cn1 (stereo not shown) [Example 133, 2-((1r,4r)-4-((2-((2-(1-(Cyclopropylsulfonyl)-1H-pyrazol-4-yl)pyrimidin-4-yl)amino)-5-(1-(difluoromethyl)-1H-pyrazol-3-yl)pyridin-4-yl)amino)cyclohexyl)ethan-1-ol] | – | – | – | – | – | 0.5 | 3.2 | 1.4 | 99.3 | > 10000 | 0.3 | 0.1 | 0.3 | 1 | 92.1
13 | C[C@]1(O)CC[C@@H](Nc2cc(Nc3ccnc(-c4cnn(S(=O)(=O)C5CC5)c4)n3)ncc2-c2csc(N3CCOCC3)n2)CC1 [Example 120, (1s,4s)-4-((2-((2-(1-(Cyclopropylsulfonyl)-1H-pyrazol-4-yl)pyrimidin-4-yl)amino)-5-(2-morpholinothiazol-4-yl)pyridin-4-yl)amino)-1-methylcyclohexan-1-ol] | – | – | – | – | – | 0.9 | 0.9 | 2.3 | 41.7 | > 10000 | 0.6 | 0.3 | 1.4 | 3 | 29.7
